In series [1] the test system is Caco-2/HT29-MTX-E12 transwell model. Nature of the series: Ferritin formation in intestinal barrier model (bioavailability of iron). Type of series: cell-based, Human. The protocol: Human Caco-2(enterocytes) and HT29-MTX-E12 (goblet) cells grown on a semi-permeable membrane comprise the intestinal barrier model. The co-cultures were grown on transwells as described below: • Caco-2 cells and HT29-MTX-E12 cells flasks were passaged when ˜90% confluent. • Cells were counted using a haemocytometer (or Coulter counter) to determine cell number/mL. • 0.6 mL growth media (no cells) was added to basolateral chamber of transwells. • 0.2 mL Caco-2/HT29-MTX-E12 cell solution was carefully added into apical chamber to achieve 3.6×104 Caco-2 and 4×10^3 HT29-MTX cells. • Co-cultures were grown on transwells for 21 days with media changed every 2-3 days. • At 21 days transepithelial electric resistance (or TEER) was measured using a Millicell voltohmeter from the apical to basolateral chamber (FIG. 1). These measurements indicate integrity of cell layer ensuring the cells are polarised and an intact barrier is ready for experimentation. […] Treatments were removed, replaced with HBSS, and incubated overnight. • After 16-18 hours cells (on apical side) were washed with PBS before trypsin was applied to remove cells from transwell membranes. • Cells were collected by centrifuging for 5 minutes. • Abcam ferritin assay was conducted according to manufacturer's instructions.
Results from the ferritin assay were analysed for significant differences using unpaired t tests. Differences were deemed significant when P<0.05. All statistical analyses were performed using GraphPad Prism 5 software.
All samples treatments were performed in the presence of 80 μM ascorbic acid.

The nature of series [2]: Differential scanning fluorometry (DSF) thermal denaturation of clarified phycoerythrin. The note with it: heated 25-95° C. at 0.5° C./10 sec. Type of series: physicochemical. The protocol:
(§1) Therefore, to gain a precise measurement of the thermal denaturation temperature of phycoerythrin, differential scanning fluorometry (DSF) was undertaken by heating 100 uL of clarified phycoerythrin from 25-95° C. by increasing the temperature by 0.5° C./10 sec.
On the technique in general: Differential scanning fluorimetry follows unfolding on heating by fluorescence.

Series [3] can be described thus: Heating of phycoerythrin extracts, colour change visualised. Type of series: physicochemical. The protocol:
First, the crude, homogenised phycoerythrin, before clarification, was heated at 95° C. for 5 min and the colour change visualised.
as §1
Thermal denaturation of each Phycoerythrin sample (a)-(d) was undertaken. The results are depicted in FIG. 4.

The nature of series [4]: Iron binding by fluorescence emission scan. Conditions: 1 mg/mL protein, 0-32 mM iron chloride, excitation 498 nm. The protocol:
Phycoerythrin extract from Example 1 (extraction included ultrasound treatment) was dissolved at a concentration of 2 mg/mL in 20 mM sodium phosphate buffer, pH 7 containing 0.02% sodium azide. Iron (II) chloride was dissolved in the same buffer at an initial concentration of 100 mM. The dissolved phycoerythrin extract was mixed 1:1 with a concentration series of iron chloride to give a final protein concentration of 1 mg/mL and final iron chloride concentrations of 0, 0.25, 0.5, 1, 2, 4, 8, 16 and 32 mM.
A fluorescence emission scan from 515-700 nm using an excitation wavelength of 498 nm was then performed on all samples using a Thermofisher Varioskan Flash (Instrument version 4.00.52). R-phycoerythrin has an emission maximum of 575 nm and therefore if iron binding occurs with the linear tetrapyrrole moiety of the protein, a change in fluorescence will be observed.

Setting [5] is: 25 μM Fe solutions, with 4 mg/mL phycoerythrin, 80 μM ascorbic acid.
The mark [6] stands for this setting: 25 μM Fe solutions, with 8 mg/mL phycoerythrin, 80 μM ascorbic acid.
Setting [7] is: 25 μM Fe solutions, without phycoerythrin, 80 μM ascorbic acid.
Setting [8] is: 25 μM iron, co-treatment with 4 or 8 mg/mL phycoerythrin.
Where [9] appears, read: 50 μM Fe solutions, with 4 mg/mL phycoerythrin, 80 μM ascorbic acid.
[10] abbreviates: 50 μM Fe solutions, with 8 mg/mL phycoerythrin, 80 μM ascorbic acid.
The mark [11] stands for this setting: 50 μM Fe solutions, without phycoerythrin, 80 μM ascorbic acid.

Take `[Cl][Fe][Cl]` [Fe (II) chloride, Iron (II) chloride]: the Ferritin in series [1] (setting [5]) is given as 15.8 ± 1.7 ng/mL; in series [1] (setting [6]), 13.9 ± 1.8 ng/mL; in series [1] (setting [7]) it was 4.4 ± 1.0 ng/mL; in series [1] (setting [9]), 10.1 ± 3.5 ng/mL; in series [1] (setting [10]), 16.0 ± 5.9 ng/mL; in series [1] (setting [11]) it was 5.2 ± 1.6 ng/mL. Moreover, in series [1] (setting [8]), the “Ferritin production compared to cells only treated with the iron solution” value is recorded as “significantly improved ferritin production”.

Regarding `[Cl][Fe]([Cl])[Cl]` [Fe (III) chloride, Iron (III) chloride], the Ferritin is recorded as 12.7 ± 0.9 ng/mL in series [1] (setting [5]); 12.7 ± 1.1 ng/mL in series [1] (setting [6]); 3.3 ± 0.5 ng/mL in series [1] (setting [7]); 13.0 ± 3.1 ng/mL in series [1] (setting [9]); 1.8 ± 0.6 ng/mL in series [1] (setting [10]); 1.7 ± 0.8 ng/mL in series [1] (setting [11]). In addition, the “Ferritin production compared to cells only treated with the iron solution” value in series [1] (setting [8]) is “significantly improved ferritin production”; in series [1] (50 μM iron, co-treatment with 4 mg/mL phycoerythrin) it was “significantly improved ferritin production”.

With phycoerythrin, in series [2], the “Thermal denaturation temperature where phycoerythrin loses its fluorescence” value came to 77 °C. Also, the “Colour change upon heating” value in series [3] (60° C. and 70° C. for 1 hour) is given as “no colour change”; in series [3] (crude, homogenised, before clarification, 95° C. for 5 min) it was “turned from red to brown”. Further, the “Change of fluorescence emission with iron” value in series [4] is on record as “decrease in phycoerythrin fluorescence with increasing iron concentration”. Moreover, the Ferritin in series [1] (No Fe, 4 mg/mL phycoerythrin (section of 25 μM Fe solutions)) is on record as 12.2 ± 0.3 ng/mL; in series [1] (No Fe, 8 mg/mL phycoerythrin (section of 25 μM Fe solutions)), 7.5 ± 1.6^ ng/mL; in series [1] (No Fe, 8 mg/mL phycoerythrin (section of 50 μM Fe solutions)), 2.5 ± 0.4 ng/mL. In addition, the “Ferritin production compared to treatment with iron solutions” value in series [1] (only 4 mg/mL phycoerythrin, no added iron) was “significantly increased ferritin production”. In addition, in series [1] (only 8 mg/mL phycoerythrin, no added iron), the “Ferritin production compared to treatment with ferric chloride” value is given as “significantly increased ferritin”.

(Values after US20240268421A1, “FOOD COLOURING AGENTS” (v2food Pdy Ltd, priority 2020, published 2024).)
